Source: patent publication US20170008888A1 (KYORIN PHARMACEUTICAL CO., LTD., priority 2014, published 2017)

How the values were obtained:
Type in all cases: binding
AMPKa1 or AMPKa2 = assay: Probe-based (AX9989) kinase profiling in Jurkat lysate: AMPKa1 or AMPKa2
Outline: (§1)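 Jurkat lysate, HEPES pH 7.5 buffer + 20 mM MnCl2; cpd 15 min RT; AX9989 ATP probe 5 μM final, RT. Trypsin digest, streptavidin capture, LC/MS; % inhibition vs vehicle from labeled-peptide signal.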

ABL or ARG = assay: Probe-based (AX9989) kinase profiling in Jurkat lysate: ABL or ARG
Outline: as §1

AurA = target: T1, AurA (Homo sapiens, UniProt O14965); assay: Probe-based (AX9989) kinase profiling in Jurkat lysate: AurA; details: read-out: Kinase inhibition % at indicated screening concentration: AurA; for inhibition at 0.1 µM: screening concentration 0.1 μM; for inhibition at 1 µM: screening concentration 1.0 μM
T1 construct: screened for activity against several kinases in Jurkat cells; endogenous in cells; host or cells: Jurkat cell lysate
T1 sequence (O14965 1-403): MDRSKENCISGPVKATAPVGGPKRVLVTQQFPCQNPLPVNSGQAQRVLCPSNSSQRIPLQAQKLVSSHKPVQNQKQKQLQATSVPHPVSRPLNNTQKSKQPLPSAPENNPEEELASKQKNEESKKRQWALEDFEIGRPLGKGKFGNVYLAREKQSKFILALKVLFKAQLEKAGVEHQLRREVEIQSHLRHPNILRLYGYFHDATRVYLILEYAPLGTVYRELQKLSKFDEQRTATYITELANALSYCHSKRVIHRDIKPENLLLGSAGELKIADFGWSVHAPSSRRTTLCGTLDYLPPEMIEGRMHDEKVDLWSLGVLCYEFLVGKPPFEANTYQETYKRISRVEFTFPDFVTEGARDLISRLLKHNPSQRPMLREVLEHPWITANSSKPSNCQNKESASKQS
Outline: as §1

AurB or AurC = assay: Probe-based (AX9989) kinase profiling in Jurkat lysate: AurB or AurC
Outline: as §1

ACK = target: T2, ACK (Homo sapiens, UniProt Q07912); assay: Probe-based (AX9989) kinase profiling in Jurkat lysate: ACK; details: read-out: Kinase inhibition % at indicated screening concentration: ACK; for inhibition at 0.1 µM: screening concentration 0.1 μM; for inhibition at 1 µM: screening concentration 1.0 μM
T2 construct: screened for activity against several kinases in Jurkat cells; endogenous in cells; host or cells: Jurkat cell lysate
T2 sequence (Q07912 whole entry): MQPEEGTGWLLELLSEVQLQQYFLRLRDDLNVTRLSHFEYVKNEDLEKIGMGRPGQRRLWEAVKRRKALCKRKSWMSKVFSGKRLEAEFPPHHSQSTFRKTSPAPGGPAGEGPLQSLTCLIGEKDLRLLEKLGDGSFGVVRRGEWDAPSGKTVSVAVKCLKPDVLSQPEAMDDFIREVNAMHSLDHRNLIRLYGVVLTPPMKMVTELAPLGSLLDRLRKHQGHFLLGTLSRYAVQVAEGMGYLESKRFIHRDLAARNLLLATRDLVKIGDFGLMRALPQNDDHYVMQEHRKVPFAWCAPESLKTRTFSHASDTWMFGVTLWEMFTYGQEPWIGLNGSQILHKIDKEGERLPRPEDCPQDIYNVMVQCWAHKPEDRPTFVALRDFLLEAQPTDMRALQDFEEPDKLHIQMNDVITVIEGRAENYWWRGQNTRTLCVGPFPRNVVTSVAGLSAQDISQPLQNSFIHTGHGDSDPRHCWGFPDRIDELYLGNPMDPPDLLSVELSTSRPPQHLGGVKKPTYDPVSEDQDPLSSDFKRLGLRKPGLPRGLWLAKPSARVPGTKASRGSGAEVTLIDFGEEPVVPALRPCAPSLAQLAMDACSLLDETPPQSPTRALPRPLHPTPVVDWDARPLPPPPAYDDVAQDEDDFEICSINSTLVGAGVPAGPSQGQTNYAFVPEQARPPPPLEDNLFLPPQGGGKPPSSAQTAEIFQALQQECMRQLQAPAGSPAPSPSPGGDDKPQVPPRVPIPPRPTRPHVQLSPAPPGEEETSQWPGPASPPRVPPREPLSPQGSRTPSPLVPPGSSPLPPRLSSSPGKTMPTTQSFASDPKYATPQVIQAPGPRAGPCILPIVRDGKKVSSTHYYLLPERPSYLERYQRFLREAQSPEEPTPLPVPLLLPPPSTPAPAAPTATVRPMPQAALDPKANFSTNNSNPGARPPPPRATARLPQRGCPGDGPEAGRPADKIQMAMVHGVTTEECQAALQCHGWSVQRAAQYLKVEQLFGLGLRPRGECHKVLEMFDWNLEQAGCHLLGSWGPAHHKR
Outline: as §1

[1] = target: T3, BRD4 bromodomain domain I [BRD4(1)] (Homo sapiens, UniProt O60885); assay: BRD4 bromodomain domain 1 inhibition assay (TR-FRET); details: screening concentration 10 μM
T3 construct: BRD4 bromodomain domain I [BRD4(1)]; purchased Cayman Chemicals
Experimental: The inhibitory activity of test compounds on the bromodomain, BRD4 bromodomain domain I [BRD4(1)], were determined via TR-FRET after a slight modification of the manufacturer's protocol (Cayman Chemicals, Ann Arbor, Mich.). Briefly, compounds were diluted to a 20× ([…]) concentration in DMSO. 100 nL of 20× compounds were then dry stamped into triplicate wells of black, low volume 384 well plates (Aurora Biotechnologies, Carlsbad, Calif.) using the Mosquito liquid handler (TPP Labtech, Melbourn, UK). 20× compounds were then diluted to a 4× (40 μM) concentration in Assay Buffer to result in 2% DMSO content. […] JQ1 at 10 μM or 0.5% DMSO final concentrations were used as the positive and negative controls, respectively, to set the assay window. The fluorescence was read in a time-resolved format on the Biotec Synergy 2 plate reader by exciting the signal at 340 nm and reading emissions at 620 and 670, using a 100 μs delay and 200 μs read window. […] Briefly, TR-FRET ratio values were normalized to the average TR-FRET ratio value given by 10 μM JQ1. […]

JAK1 = target: T4, JAK1 (Homo sapiens, UniProt P23458); assay: Probe-based (AX9989) kinase profiling in Jurkat lysate: JAK1; details: read-out: Kinase inhibition % at indicated screening concentration: JAK1; for inhibition at 0.1 µM: screening concentration 0.1 μM; for inhibition at 1 µM: screening concentration 1.0 μM
T4 construct: screened for activity against several kinases in Jurkat cells; endogenous in cells; host or cells: Jurkat cell lysate
T4 sequence (P23458 whole entry): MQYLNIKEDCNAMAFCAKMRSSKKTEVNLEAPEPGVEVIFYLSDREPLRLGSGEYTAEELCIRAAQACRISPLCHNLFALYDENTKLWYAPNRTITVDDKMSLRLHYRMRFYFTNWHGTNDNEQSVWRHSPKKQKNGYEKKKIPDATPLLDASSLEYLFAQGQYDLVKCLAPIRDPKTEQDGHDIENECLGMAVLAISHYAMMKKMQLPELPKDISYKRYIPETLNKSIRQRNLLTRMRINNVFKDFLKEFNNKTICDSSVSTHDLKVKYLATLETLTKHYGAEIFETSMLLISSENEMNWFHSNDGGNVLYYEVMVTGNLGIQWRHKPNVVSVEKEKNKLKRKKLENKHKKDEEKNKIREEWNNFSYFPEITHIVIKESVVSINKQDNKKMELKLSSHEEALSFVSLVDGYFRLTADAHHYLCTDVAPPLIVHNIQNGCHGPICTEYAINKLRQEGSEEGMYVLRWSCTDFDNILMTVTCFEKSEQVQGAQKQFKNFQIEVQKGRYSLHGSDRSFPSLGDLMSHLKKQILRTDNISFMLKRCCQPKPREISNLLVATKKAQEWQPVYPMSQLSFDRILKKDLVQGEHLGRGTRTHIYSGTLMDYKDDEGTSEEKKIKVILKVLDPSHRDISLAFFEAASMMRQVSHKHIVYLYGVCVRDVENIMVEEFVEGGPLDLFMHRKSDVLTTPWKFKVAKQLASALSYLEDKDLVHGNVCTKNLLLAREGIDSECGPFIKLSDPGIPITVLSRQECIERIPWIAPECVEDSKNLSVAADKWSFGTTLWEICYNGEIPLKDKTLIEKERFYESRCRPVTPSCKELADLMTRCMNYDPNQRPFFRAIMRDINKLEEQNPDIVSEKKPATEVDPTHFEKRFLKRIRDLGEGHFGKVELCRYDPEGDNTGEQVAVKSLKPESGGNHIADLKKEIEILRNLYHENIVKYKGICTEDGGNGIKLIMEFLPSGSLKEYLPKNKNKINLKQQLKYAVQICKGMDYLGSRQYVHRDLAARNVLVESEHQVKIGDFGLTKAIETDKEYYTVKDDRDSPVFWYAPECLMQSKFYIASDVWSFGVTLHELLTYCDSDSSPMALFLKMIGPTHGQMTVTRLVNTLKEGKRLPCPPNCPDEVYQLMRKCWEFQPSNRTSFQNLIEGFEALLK
Outline: as §1

TAO2 = target: T5, TAO2 (Homo sapiens, UniProt Q9UL54); assay: Probe-based (AX9989) kinase profiling in Jurkat lysate: TAO2; details: read-out: Kinase inhibition % at indicated screening concentration: TAO2; for inhibition at 0.1 µM: screening concentration 0.1 μM; for inhibition at 1 µM: screening concentration 1.0 μM
T5 construct: screened for activity against several kinases in Jurkat cells; endogenous in cells; host or cells: Jurkat cell lysate
T5 sequence (Q9UL54 1-1235): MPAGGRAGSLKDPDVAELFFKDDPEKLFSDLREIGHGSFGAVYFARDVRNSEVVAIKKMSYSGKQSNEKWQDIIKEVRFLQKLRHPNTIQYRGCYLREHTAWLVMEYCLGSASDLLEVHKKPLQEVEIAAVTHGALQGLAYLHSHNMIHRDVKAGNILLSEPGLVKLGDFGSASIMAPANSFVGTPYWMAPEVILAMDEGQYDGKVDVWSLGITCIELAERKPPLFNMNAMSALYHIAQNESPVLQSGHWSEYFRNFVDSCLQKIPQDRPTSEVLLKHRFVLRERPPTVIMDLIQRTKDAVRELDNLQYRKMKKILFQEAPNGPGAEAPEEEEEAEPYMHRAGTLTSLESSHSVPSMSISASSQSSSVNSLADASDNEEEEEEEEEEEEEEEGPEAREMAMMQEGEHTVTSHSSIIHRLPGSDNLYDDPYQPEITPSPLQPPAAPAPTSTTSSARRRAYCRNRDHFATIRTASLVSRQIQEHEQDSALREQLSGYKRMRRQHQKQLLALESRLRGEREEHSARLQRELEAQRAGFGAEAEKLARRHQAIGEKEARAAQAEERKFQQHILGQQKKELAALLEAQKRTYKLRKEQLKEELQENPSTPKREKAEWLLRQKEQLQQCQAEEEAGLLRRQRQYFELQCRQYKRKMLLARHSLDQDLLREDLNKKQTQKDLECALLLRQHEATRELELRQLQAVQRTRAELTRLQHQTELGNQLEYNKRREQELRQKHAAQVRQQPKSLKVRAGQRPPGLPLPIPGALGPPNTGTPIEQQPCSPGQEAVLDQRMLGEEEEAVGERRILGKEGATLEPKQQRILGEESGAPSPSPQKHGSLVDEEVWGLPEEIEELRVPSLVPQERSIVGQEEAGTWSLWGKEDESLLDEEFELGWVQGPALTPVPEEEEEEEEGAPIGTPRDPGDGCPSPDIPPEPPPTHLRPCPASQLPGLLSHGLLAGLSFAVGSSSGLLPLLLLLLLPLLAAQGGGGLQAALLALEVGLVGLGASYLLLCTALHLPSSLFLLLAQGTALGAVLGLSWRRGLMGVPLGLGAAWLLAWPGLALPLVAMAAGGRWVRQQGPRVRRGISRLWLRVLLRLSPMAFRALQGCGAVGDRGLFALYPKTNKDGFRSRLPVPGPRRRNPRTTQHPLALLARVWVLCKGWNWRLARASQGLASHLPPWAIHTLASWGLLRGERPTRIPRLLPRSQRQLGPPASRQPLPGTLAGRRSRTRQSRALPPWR
Outline: as §1

ERK5 = target: T6, ERK5 (Homo sapiens, UniProt Q13164); assay: Probe-based (AX9989 acyl phosphate ATP probe) kinase profiling in Jurkat lysate: ERK5; details: for IC50: calculated from percent inhibition of AX9989 labeling and the screening concentration, Jurkat lysate; for inhibition at 0.1 µM: screening concentration 0.1 μM; for inhibition at 0.1 µM / inhibition at 1 µM: read-out: Kinase inhibition % at indicated screening concentration: ERK5; for inhibition at 1 µM: screening concentration 1.0 μM
T6 construct: screened for activity against several kinases in Jurkat cells; endogenous in cells; host or cells: Jurkat cell lysate
T6 sequence (Q13164 whole entry): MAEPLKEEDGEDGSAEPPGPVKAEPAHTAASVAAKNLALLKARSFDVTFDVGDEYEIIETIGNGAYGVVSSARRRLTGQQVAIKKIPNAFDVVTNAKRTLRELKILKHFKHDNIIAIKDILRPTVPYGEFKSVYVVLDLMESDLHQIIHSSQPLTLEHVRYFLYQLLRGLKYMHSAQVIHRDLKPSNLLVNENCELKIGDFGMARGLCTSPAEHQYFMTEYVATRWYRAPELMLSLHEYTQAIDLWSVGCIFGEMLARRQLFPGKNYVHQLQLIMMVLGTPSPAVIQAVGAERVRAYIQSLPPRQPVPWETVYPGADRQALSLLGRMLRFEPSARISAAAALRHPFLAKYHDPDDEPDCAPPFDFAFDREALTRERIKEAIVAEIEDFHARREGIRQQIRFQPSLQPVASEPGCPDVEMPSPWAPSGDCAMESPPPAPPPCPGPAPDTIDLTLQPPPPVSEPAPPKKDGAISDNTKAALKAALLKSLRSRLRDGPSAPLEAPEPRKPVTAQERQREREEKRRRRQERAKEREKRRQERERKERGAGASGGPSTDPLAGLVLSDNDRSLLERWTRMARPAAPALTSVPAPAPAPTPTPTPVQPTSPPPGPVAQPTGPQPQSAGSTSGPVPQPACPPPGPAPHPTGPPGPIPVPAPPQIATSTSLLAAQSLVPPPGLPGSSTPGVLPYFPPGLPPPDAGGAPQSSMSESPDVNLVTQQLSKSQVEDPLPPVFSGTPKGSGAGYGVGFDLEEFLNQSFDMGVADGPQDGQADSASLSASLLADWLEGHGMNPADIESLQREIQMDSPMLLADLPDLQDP
Outline: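 Gel-filtered Jurkat lysate (5 mg/ml, 20 mM MnCl2) preincubated 15 min at room temperature with compound, then labelled with 5 μM AX9989 acyl phosphate ATP probe. Probe-labelled ERK5 active-site peptides quantified by LC/MS after trypsin digestion and streptavidin capture; IC50 calculated from percent inhibition at the screening concentration.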

## CCOc1cc(C(=O)N2CCC(NC3CC3)C2)ccc1Nc1cc2c(cn1)N(C)C(=O)c1ccccc1N2C (stereo not shown) [Compound 20]
AMPKa1 or AMPKa2; screening concentration 0.1 μM
  Kinase inhibition % at indicated screening concentration: AMPKa1 or AMPKa2: E (E is ≦35%)
ABL or ARG; screening concentration 0.1 μM
  Kinase inhibition % at indicated screening concentration: ABL or ARG: E (E is ≦35%)
AurA
  inhibition at 0.1 µM: ≤ 35%
AurB or AurC; screening concentration 0.1 μM
  Kinase inhibition % at indicated screening concentration: AurB or AurC: E (E is ≦35%)
ACK
  inhibition at 0.1 µM: ≤ 35%
[1]
  inhibition at 10 µM: 70 to 85%
JAK1
  inhibition at 0.1 µM: ≤ 35%
TAO2
  inhibition at 0.1 µM: ≤ 35%
ERK5
  IC50: ≤ 50 nM
  inhibition at 0.1 µM: 75 to 90%

## CN1C(=O)c2ccccc2N(C)c2cc(NC3CCC(C(=O)O)CC3)ncc21 (stereo not shown) [Compound 23]
AMPKa1 or AMPKa2; screening concentration 1.0 μM
  Kinase inhibition % at indicated screening concentration: AMPKa1 or AMPKa2: E (E is ≦35%)
ABL or ARG; screening concentration 1.0 μM
  Kinase inhibition % at indicated screening concentration: ABL or ARG: E (E is ≦35%)
AurA
  inhibition at 1 µM: ≤ 35%
AurB or AurC; screening concentration 1.0 μM
  Kinase inhibition % at indicated screening concentration: AurB or AurC: E (E is ≦35%)
ACK
  inhibition at 1 µM: ≤ 35%
[1]
  inhibition at 10 µM: < 70%
JAK1
  inhibition at 1 µM: ≤ 35%
TAO2
  inhibition at 1 µM: ≤ 35%
ERK5
  IC50: > 500 nM
  inhibition at 1 µM: 35 to 50%

## CCOc1cc(C(=O)N2CC[C@@H](NC)C2)ccc1Nc1cc2c(cn1)N(C)C(=O)c1ccccc1N2C [Compound 26]
AMPKa1 or AMPKa2; screening concentration 0.1 μM
  Kinase inhibition % at indicated screening concentration: AMPKa1 or AMPKa2: E (E is ≦35%)
ABL or ARG; screening concentration 0.1 μM
  Kinase inhibition % at indicated screening concentration: ABL or ARG: E (E is ≦35%)
AurA
  inhibition at 0.1 µM: ≤ 35%
AurB or AurC; screening concentration 0.1 μM
  Kinase inhibition % at indicated screening concentration: AurB or AurC: E (E is ≦35%)
ACK
  inhibition at 0.1 µM: ≤ 35%
[1]
  inhibition at 10 µM: > 85%
JAK1
  inhibition at 0.1 µM: ≤ 35%
TAO2
  inhibition at 0.1 µM: ≤ 35%
ERK5
  IC50: ≤ 50 nM
  inhibition at 0.1 µM: 75 to 90%

## CCN(CC)CCNC(=O)c1cccc(Nc2cc3c(cn2)N(C)C(=O)c2ccccc2N3C)c1OC [Compound 29]
AMPKa1 or AMPKa2; screening concentration 1.0 μM
  Kinase inhibition % at indicated screening concentration: AMPKa1 or AMPKa2: E (E is ≦35%)
ABL or ARG; screening concentration 1.0 μM
  Kinase inhibition % at indicated screening concentration: ABL or ARG: E (E is ≦35%)
AurA
  inhibition at 1 µM: ≤ 35%
AurB or AurC; screening concentration 1.0 μM
  Kinase inhibition % at indicated screening concentration: AurB or AurC: E (E is ≦35%)
ACK
  inhibition at 1 µM: ≤ 35%
[1]
  inhibition at 10 µM: < 70%
JAK1
  inhibition at 1 µM: ≤ 35%
TAO2
  inhibition at 1 µM: ≤ 35%
ERK5
  IC50: 101 to 500 nM
  inhibition at 1 µM: 50 to 75%

## CN1C(=O)c2ccccc2N(C)c2cc(N[C@H]3CC[C@H](O)CC3)ncc21 [Compound 33, 3-((1r,4r)-4-hydroxycyclohexylamino)-5,11-dimethyl-5H-benzo[e]pyrido[3,4-b][1,4]diazepin-10(11H)-one]
AMPKa1 or AMPKa2; screening concentration 1.0 μM
  Kinase inhibition % at indicated screening concentration: AMPKa1 or AMPKa2: E (E is ≦35%)
ABL or ARG; screening concentration 1.0 μM
  Kinase inhibition % at indicated screening concentration: ABL or ARG: E (E is ≦35%)
AurA
  inhibition at 1 µM: ≤ 35%
AurB or AurC; screening concentration 1.0 μM
  Kinase inhibition % at indicated screening concentration: AurB or AurC: E (E is ≦35%)
ACK
  inhibition at 1 µM: ≤ 35%
[1]
  inhibition at 10 µM: < 70%
JAK1
  inhibition at 1 µM: ≤ 35%
TAO2
  inhibition at 1 µM: ≤ 35%
ERK5
  IC50: 101 to 500 nM
  inhibition at 1 µM: 75 to 90%

## CN1C(=O)c2ccccc2N(C)c2cc(N[C@H]3CC[C@H](Nc4ncccn4)CC3)ncc21 [Compound 47]
AMPKa1 or AMPKa2; screening concentration 1.0 μM
  Kinase inhibition % at indicated screening concentration: AMPKa1 or AMPKa2: E (E is ≦35%)
ABL or ARG; screening concentration 1.0 μM
  Kinase inhibition % at indicated screening concentration: ABL or ARG: E (E is ≦35%)
AurA
  inhibition at 1 µM: ≤ 35%
AurB or AurC; screening concentration 1.0 μM
  Kinase inhibition % at indicated screening concentration: AurB or AurC: E (E is ≦35%)
ACK
  inhibition at 1 µM: ≤ 35%
[1]
  inhibition at 10 µM: < 70%
JAK1
  inhibition at 1 µM: ≤ 35%
TAO2
  inhibition at 1 µM: ≤ 35%
ERK5
  IC50: > 500 nM
  inhibition at 1 µM: 35 to 50%

## CCOc1cc(C(=O)NC(CO)CO)ccc1Nc1cc2c(cn1)N(C)C(=O)c1ccccc1N2C [Compound 48]
AMPKa1 or AMPKa2; screening concentration 1.0 μM
  Kinase inhibition % at indicated screening concentration: AMPKa1 or AMPKa2: E (E is ≦35%)
ABL or ARG; screening concentration 1.0 μM
  Kinase inhibition % at indicated screening concentration: ABL or ARG: E (E is ≦35%)
AurA
  inhibition at 1 µM: ≤ 35%
AurB or AurC; screening concentration 1.0 μM
  Kinase inhibition % at indicated screening concentration: AurB or AurC: E (E is ≦35%)
ACK
  inhibition at 1 µM: ≤ 35%
[1]
  inhibition at 10 µM: < 70%
JAK1
  inhibition at 1 µM: ≤ 35%
TAO2
  inhibition at 1 µM: ≤ 35%
ERK5
  IC50: 101 to 500 nM
  inhibition at 1 µM: 50 to 75%
